Measured values reported in US9856225B2, “Substituted phenazines as antimicrobial agents” (University of Florida Research Foundation, Incorporated, priority 2013, dated 2018).
Where two headings read alike, the source gives them in different places.

How the values were obtained:
Format in all cases: cell-based
[1] = system: Staphylococcus aureus (ATCC 25923) biofilm; assay: Biofilm inhibition, crystal violet staining; set-up: MIC/IC50 Biofilm: unit not given here; settings: for Phenotype: planktonic growth vs biofilm formation; for IC50: Staphylococcus aureus, ATCC25923; for MIC/IC50 Biofilm: ratio of MIC to IC50 of biofilm inhibition
Protocol: Biofilm Inhibition Protocol for S. aureus (ATCC 25923). A serial two-fold dilution of 2× bromophenazine small molecule concentration was made in 100 μL tryptic soy broth (TSB) medium with 0.5% glucose were delivered into 0.1% gelatin (Millipore) coated 96-well tissue culture plates. […] To each well, 100 μL of TSB with 0.5% glucose containing 2×10^6 CFU/mL Staphylococcus aureus cells, prepared from fresh culture (OD600 of 0.8), was added. The plates were incubated at 37° C. for 24 hours. The wells were gently rinsed by submerging the entire plates in a tub of cold, running tap water. The wells were then fixed with 200 μL methanol for 15 minutes. After the plates were air dried, the biofilms were stained with 100 μL of 1% crystal violet for 10 minutes. The plates were again rinsed with running water. After drying in air, quantitative assessment of biofilm formation was obtained by extracting the crystal violet associated with the remaining biofilm with 100 μL per well of the following bleaching solution (methanol:glacial acetic acid:water (v/v/v)=4:1:5). This bleaching solution dissolved the bound crystal violet and produced a violet-colored solution in each well. The intensity of coloration was determined by measuring the absorbance at 540 nm.

[2] = system: Acinetobacter baumannii (ATCC 19606) biofilm; assay: Biofilm inhibition, Mueller-Hinton broth, crystal violet; settings: A. baumannii ATCC 19606; for inhibition at 100 µM: Acinetobacter baumannii, ATCC19606, read-out: % Biofilm Inhibition at 100 μM
Protocol: Biofilm Inhibition Protocol for A. baumannii (ATCC 19606): In a 96-well plate, ten two-fold serial dilutions of each compound tested were made from the highest concentration tested (100 μM) in a final volume of 100 μL in Mueller-Hinton broth (one column served as a blank). Each well was inoculated with ˜7×10^6 colony forming units per milliliter (corresponding to an OD600 of 0.01 prepared directly from an overnight culture). A lid was placed on the 96-well plate which was wrapped in suran wrap, placed in a humidifying chamber and incubated under static conditions at 37° C. for 24 hours. Following incubation, the media and planktonic bacteria were then removed from 96-well plates and the wells were then washed with water. The bacterial biofilms within the microtiter wells were stained with 200 μL of an aqueous 0.1% crystal violet solution that was allowed to stand for 10-20 minutes. The crystal violet stain was then removed, the wells were rinsed with water and dried. The crystal violet stain that remained on the inside of the wells (i.e., stained bacterial biofilm) on the inside of the wells was solubilized by the addition of 200 μL ethanol and absorbance was read at OD540 using a spectrophotometer. NOTE: The concentration range tested for each compound was 0.2-100 μM. Single data points for all compounds and DMSO controls were tested in two replicate rows in 96-well plates and corresponding absorbance readings were averaged for the quantification of planktonic growth and biofilm formation. Reported percent biofilm inhibition was determined by the comparison of compound treated wells (the average of the two replicate wells) versus vehicle control wells without compound following background subtraction (i.e., an empty, untreated well) and reported from 2 to 4 independent overnight cultures. DMSO was serially diluted at the same concentration as test compounds with a top concentration of 1% v/v.
The bromophenazines were also evaluated against the Gram-negative bacterium Acinetobacter baumannii in order to identify biofilm modulating small molecules against this emerging pathogen. Acinetobacter baumannii is notorious for its ability to persist as bacterial biofilms on hospital surfaces, giving rise to many multidrug-resistant nosocomial infections. Clinical isolates of A. baumannii have been identified that are resistant to every class of antibiotic clinically used. The bromophenazines were evaluated against Acinetobacter baumannii ATCC 19606 in biofilm inhibition assays. Bromophenazines were allowed to incubate in 96-well plates with Acinetobacter baumannii (˜7×10^6 CFUmL^−1 by adjusting an overnight culture to an OD600˜0.01) for 24 hours at 37° C. using Mueller-Hinton broth followed by spectrophometer readings of each plate to evaluate planktonic growth (OD600) and biofilm formation (OD540 after crystal violet stain of biofilms inside microtiter wells). […] This biofilm inhibition with activation of planktonic growth activity was dose-dependent with bromophenazine 17a (see FIG. 20).

[3] = system: Acinetobacter baumannii (ATCC 19606) pre-formed biofilm; assay: Biofilm dispersion, crystal violet; settings: for percent biofilm dispersion at 100 µM: Acinetobacter baumannii, ATCC19606, 24 h
Protocol: Biofilm Dispersion Protocol for A. baumannii (ATCC 19606): To a 96-well plate was added a volume of 100 μL Mueller-Hinton broth that was inoculated with ˜7×10^6 colony forming units per milliliter (corresponding to an OD600 of 0.01 prepared directly from an overnight culture). Two columns of wells were left blank to serve as our background wells. A lid was placed on the 96-well plate which was wrapped in suran wrap, placed in a humidifying chamber and incubated under static conditions at room temperature for 24 hours to establish bacterial biofilms. Following this initial incubation at room temperature, the media and planktonic bacteria were then removed from 96-well plates and the wells were then washed with water. Fresh medium was then added and series of ten two-fold serial dilutions of text compound were made in the 96-well plate using a multichannel pipette. A lid was then placed on 96-well plate which was then wrapped in suran wrap, placed in a humidifying chamber and incubated under static conditions at 37° C. for 24 hours. Following this second incubation to test compounds against pre-formed biofilms, the media and planktonic bacteria were again removed from 96-well plates and the wells were then washed with water. The bacterial biofilms within the microtiter wells were stained with 200 μL of an aqueous 0.1% crystal violet solution that was allowed to stand for 10-20 minutes. The crystal violet stain was then removed, the wells were rinsed with water and dried. The crystal violet stain that remained on the inside of the wells (i.e., stained bacterial biofilm) on the inside of the wells was solubilized by the addition of 200 μL ethanol and absorbance was read at OD540 using a spectrophotometer. Note: The concentration range tested for each compound was 0.2-100 μM. Single data points for all compounds and DMSO controls were tested in two replicate rows in 96-well plates and corresponding absorbance readings were averaged for the quantification of remaining bacterial biofilms. Reported percent dispersion of biofilms was determined by the comparison of compound treated wells (the average of the two replicate wells) versus vehicle control wells without compound following background subtraction (i.e., an empty, untreated well) and reported from two independent experiments. DMSO was serially diluted at the same concentration as test compounds with a top concentration of 1% v/v.

[4] = S. aureus ATCC 25923, single replicate screen, read-out: Biofilm Inhibition IC50
[5] = read-out: % Biofilm Dispersion at 100 μM, A. baumannii ATCC 19606
[6] = A. baumannii ATCC 19606, read-out: % Biofilm Dispersion at 100 μM
[7] = S. aureus, three independent experiments, read-out: Biofilm inhibition IC50 (triplicate)

SMILES	Phenotype ([1]; S. aureus ATCC 25923)	IC50 [1, 4]	MIC/IC50 Biofilm ([1]; S. aureus ATCC 25923)	Phenotype [2]	inhibition at 100 µM [2]	Biofilm Dispersal Agent? ([3]; A. baumannii ATCC 19606)	percent biofilm dispersion at 100 µM [3, 5]	percent biofilm dispersion at 100 µM [3, 6]	IC50 [1, 7]
CC(=O)Oc1c(Br)cc(Br)c2nc3ccccc3nc12 [Compound 21, 2,4-Dibromophenazin-1-yl acetate]	antibacterial	420 nM	2.8	antibacterial	98 ± 1%	Yes	53 to 57%		
O=C(OCC(Cl)(Cl)Cl)Oc1c(Br)cc(Br)c2nc3ccccc3nc12 [Compound 27a]	antibacterial	760 nM	1.0	antibacterial	99 ± 1%	Yes		38 ± 6%	
Cc1ccc(C(=O)Oc2c(Br)cc(Br)c3nc4ccccc4nc23)cc1 [Compound 18a]		450 nM		inactive	1 ± 5%	No		-1 ± 6%	550 nM
O=C(Oc1c(Br)cc(Br)c2nc3ccccc3nc12)c1cccc([N+](=O)[O-])c1 [Compound 15a]	antibacterial	360 nM	4.3		25 ± 6%	Yes		36 ± 2%	
O=C(OCCc1ccccc1)Oc1c(Br)cc(Br)c2nc3ccccc3nc12 [Compound 8a]	antibacterial	760 nM	2.1	antibacterial	97 ± 2%	Yes		32 ± 4%	
O=C(CCCC(=O)Oc1c(Br)cc(Br)c2nc3ccccc3nc12)Oc1c(Br)cc(Br)c2nc3ccccc3nc12 [Compound 5a]		12100 nM	>8.3		59 ± 11%	Yes		30 ± 3%	
O=C(Oc1c(Br)cc(Br)c2nc3ccccc3nc12)c1ccc(Br)cc1 [Compound 12a]		810 nM			34 ± 4%	No		5 ± 12%	1130 nM
Oc1c(Br)cc(Br)c2nc3ccccc3nc12 [Compound 11, 2,4-Dibromophenazin-1-ol]	antibacterial	410 nM		antibacterial	98 ± 1%	Yes	53 to 57%		
CCC(=O)Oc1c(Br)cc(Br)c2nc3ccccc3nc12 [Compound 4a]	antibacterial	920 nM	1.7	antibacterial	99 ± 1%	Yes		53 to 57%	
O=C(Oc1c(Br)cc(Br)c2nc3ccccc3nc12)c1ccco1 [Compound 23a]	antibacterial	760 nM		antibacterial	86 ± 12%	No		17 ± 14%	
O=C(Oc1c(Br)cc(Br)c2nc3ccccc3nc12)c1ccccc1 [Compound 23, 2,4-Dibromophenazin-1-yl benzoate]	antibacterial	1710 nM	0.9		51 ± 6%	No	-1 ± 6%		
O=C(Oc1c(Br)cc(Br)c2nc3ccccc3nc12)c1ccc(Cl)cc1 [Compound 14a]		640 nM			25 ± 3%	No		7 ± 2%	770 nM
COC(=O)Oc1c(Br)cc(Br)c2nc3ccccc3nc12 [Compound 28a]	antibacterial	770 nM	2.0	antibacterial	99 ± 1%	Yes		53 to 57%	
